For this test, the system named is BDF1 mice, P388 leukemia ip, median survival T/C. As to the kind of experiment: NCI In Vivo Anticancer Drug Screen. Data for tumor model P388 Leukemia (intraperitoneal) in B6D2F1 (BDF1) mice. As to conditions: endpoint: median survival time, higher = longer survival. Put shortly: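 In tumour-bearing mice, survival after compound treatment is set against the vehicle group and given as a quotient.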

The mark [1] stands for this setting: dose: 100.0 mg/kg/injection, schedule: Q01DX009 (ip), vehicle: saline with Tween-80.
Where [2] appears, read: dose: 100.0 mg/kg/injection, schedule: Q04DX003 (ip), vehicle: saline with Tween-80.
[3] abbreviates: dose: 200.0 mg/kg/injection, schedule: Q01DX009 (ip), vehicle: saline with Tween-80.
Setting [4] is: dose: 200.0 mg/kg/injection, schedule: Q04DX003 (ip), vehicle: saline with Tween-80.
Where [5] appears, read: dose: 25.0 mg/kg/injection, schedule: Q04DX003 (ip), vehicle: saline with Tween-80.
The mark [6] stands for this setting: dose: 50.0 mg/kg/injection, schedule: Q04DX003 (ip), vehicle: saline with Tween-80.
The mark [7] stands for this setting: dose: 50.0 mg/kg/injection, schedule: Q01DX009 (ip), vehicle: Klucel (hydroxypropylcellulose) (HPC).
The mark [8] stands for this setting: dose: 100.0 mg/kg/injection, schedule: Q01DX009 (ip), vehicle: Klucel (hydroxypropylcellulose) (HPC).
Where [9] appears, read: dose: 12.5 mg/kg/injection, schedule: Q04DX003 (ip), vehicle: saline.
Where [10] appears, read: dose: 50.0 mg/kg/injection, schedule: Q01DX009 (ip), vehicle: saline with Tween-80.
The mark [11] stands for this setting: dose: 50.0 mg/kg/injection, schedule: Q01DX001 (ip), vehicle: saline with Tween-80.
[12] abbreviates: dose: 100.0 mg/kg/injection, schedule: Q01DX001 (ip), vehicle: saline with Tween-80.
Where [13] appears, read: dose: 200.0 mg/kg/injection, schedule: Q01DX001 (ip), vehicle: saline with Tween-80.
The mark [14] stands for this setting: dose: 50.0 mg/kg/injection, schedule: Q04DX003 (ip), vehicle: saline sonified.
The mark [15] stands for this setting: dose: 200.0 mg/kg/injection, schedule: Q04DX003 (ip), vehicle: saline sonified.
Setting [16] is: dose: 100.0 mg/kg/injection, schedule: Q01DX009 (ip), vehicle: saline.
Where [17] appears, read: dose: 200.0 mg/kg/injection, schedule: Q01DX009 (ip), vehicle: saline.

Several values for one entry are separate records, joined by “and”; a condition that tells them apart may be missing. Identical values can stand only once. Toxic doses and inconclusive results are not listed.

With `[OH-].[OH-].[Pd+2].c1ccc(CSc2ncnc3nc[nH]c23)cc1.c1ccc(CSc2ncnc3nc[nH]c23)cc1.c1ccc(CSc2ncnc3nc[nH]c23)cc1.c1ccc(CSc2ncnc3nc[nH]c23)cc1`, the T/C is 90 % of control under setting [1]; 90 % of control under setting [2]; 90 % of control under setting [3]; 90 % of control under setting [4]; 90 % of control (dose: 400.0 mg/kg/injection, schedule: Q01DX009 (ip), vehicle: saline with Tween-80).
Turning to `Cc1ccc(C)c(C(C)NC2=NCCO2)c1` (centres undefined), the T/C reads like this: under setting [5], 90 % of control; under setting [6], 90 % of control.
Regarding `CC(=O)Nc1c2sscc-2n(C)c1=O`, the T/C is 97 % of control (dose: 0.39 mg/kg/injection, schedule: Q01DX009 (ip), vehicle: saline with Tween-80) and 104 % of control (dose: 0.78 mg/kg/injection, schedule: Q01DX009 (ip), vehicle: saline with Tween-80).
For the compound `CC(=O)C1C(=O)OC2(C)C(=O)C3=COC(/C=C\C(C)=C/C(C)C)=CC3=CC12` (centres undefined), the T/C was 107 % of control (dose: 75.0 mg/kg/injection, schedule: Q01DX009 (ip), vehicle: saline with Tween-80) and 151 % of control (dose: 150.0 mg/kg/injection, schedule: Q01DX009 (ip), vehicle: saline with Tween-80).
For the compound `O=C(SCC(NSc1ccccc1[N+](=O)[O-])C(=O)O)c1ccccc1` (centres undefined), the T/C is 105 % of control (dose: 12.0 mg/kg/injection, schedule: Q01DX009 (ip), vehicle: Klucel (hydroxypropylcellulose) (HPC)); 115 % of control (dose: 25.0 mg/kg/injection, schedule: Q01DX009 (ip), vehicle: Klucel (hydroxypropylcellulose) (HPC)); 115 % of control under setting [7]; 110 % of control under setting [8]; 105 % of control (dose: 200.0 mg/kg/injection, schedule: Q01DX009 (ip), vehicle: Klucel (hydroxypropylcellulose) (HPC)).
Take `CC(CN)OCc1ccccc1` (centres undefined): the T/C runs as follows: under setting [9], 100 % of control; (dose: 50.0 mg/kg/injection, schedule: Q04DX003 (ip), vehicle: saline) 100 % of control.
For `C[CH2][Pb]([CH2]C)([CH2]C)[O]C(=O)COC`, the T/C is 115 % of control (dose: 0.78 mg/kg/injection, schedule: Q01DX009 (ip), vehicle: Klucel (hydroxypropylcellulose) (HPC)); 98 % of control (dose: 1.56 mg/kg/injection, schedule: Q01DX009 (ip), vehicle: Klucel (hydroxypropylcellulose) (HPC)); 121 % of control (dose: 3.13 mg/kg/injection, schedule: Q01DX009 (ip), vehicle: Klucel (hydroxypropylcellulose) (HPC)).
For `C=Cn1ccc(=O)[nH]c1=O` (tested in a mixture with another compound), the T/C is, setting by setting: under setting [10], 86 % of control; under setting [1], 121 % of control; under setting [3], 93 % of control.
For `O=C1CCC(=O)N1C1c2ccccc2Oc2ccccc21`, the T/C reads like this: (dose: 100.0 mg/kg/injection, schedule: Q01DX001 (ip), vehicle: other) 90 % of control; (dose: 200.0 mg/kg/injection, schedule: Q01DX001 (ip), vehicle: other) 90 % of control; (dose: 400.0 mg/kg/injection, schedule: Q01DX001 (ip), vehicle: other) 113 % of control.
Regarding `CN(C)P(Cl)(Cc1ccccc1)(c1ccccc1)c1ccccc1`, the T/C runs as follows: (dose: 3.0 mg/kg/injection, schedule: Q01DX009 (ip), vehicle: saline) 108 % of control; (dose: 3.0 mg/kg/injection, schedule: Q04DX003 (ip), vehicle: saline) 110 % of control; (dose: 6.0 mg/kg/injection, schedule: Q01DX009 (ip), vehicle: saline) 116 % of control and 122 % of control; (dose: 6.0 mg/kg/injection, schedule: Q04DX003 (ip), vehicle: saline) 105 % of control; (dose: 12.0 mg/kg/injection, schedule: Q04DX003 (ip), vehicle: saline) 110 % of control.
Turning to `Nc1cc(N)cc([N+](=O)[O-])c1`, the T/C was 90 % of control (dose: 6.25 mg/kg/injection, schedule: Q01DX009 (ip), vehicle: saline); 100 % of control (dose: 6.25 mg/kg/injection, schedule: Q04DX003 (ip), vehicle: saline); 86 % of control (dose: 12.5 mg/kg/injection, schedule: Q01DX009 (ip), vehicle: saline); 104 % of control under setting [9]; 100 % of control (dose: 25.0 mg/kg/injection, schedule: Q04DX003 (ip), vehicle: saline).
Regarding `CCCCc1c2c(nn1C(=O)C=C(C)C)C(=O)C=C(Nc1ccccc1)C2=O`, the T/C is, setting by setting: under setting [2], 99 % of control; under setting [4], 95 % of control; (dose: 400.0 mg/kg/injection, schedule: Q04DX003 (ip), vehicle: saline with Tween-80) 103 % of control.
Regarding `O=C(OC1c2ccccc2C2CC21)c1cc([N+](=O)[O-])cc([N+](=O)[O-])c1` (centres undefined), the T/C under setting [10] was 100 % of control, the T/C under setting [1] is 104 % of control and the T/C under setting [3] is 104 % of control.
In the case of `Cc1cc(Nc2cccc(Cl)c2)cc(=O)[nH]1`, the T/C under setting [11] is 113 % of control, the T/C under setting [12] is 100 % of control and the T/C under setting [13] was 98 % of control.
Take `O=C(CC(Cl)(C(F)(F)F)C(F)(F)F)c1cccc([N+](=O)[O-])c1`: the T/C is, setting by setting: (dose: 12.5 mg/kg/injection, schedule: Q01DX001 (ip), vehicle: saline with Tween-80) 113 % of control; (dose: 25.0 mg/kg/injection, schedule: Q01DX001 (ip), vehicle: saline with Tween-80) 109 % of control; under setting [11], 109 % of control.
`Nc1nc(N)nc(CCP(CCc2nc(N)nc(N)n2)CCc2nc(N)nc(N)n2)n1`: the T/C runs as follows: under setting [14], 100 % of control; (dose: 100.0 mg/kg/injection, schedule: Q04DX003 (ip), vehicle: saline sonified) 110 % of control; under setting [15], 110 % of control.
Regarding `Cc1nc[nH]c(=O)c1N`, the T/C (dose: 50.0 mg/kg/injection, schedule: Q01DX009 (ip), vehicle: saline) was 102 % of control; the T/C under setting [16] was 102 % of control; the T/C under setting [17] was 102 % of control.
As for `O=C(O)c1ccccc1C(=O)OC1=CS(=O)(=O)CC1`, the T/C was 93 % of control under setting [11]; 96 % of control under setting [12]; 97 % of control under setting [13]; 110 % of control (dose: 400.0 mg/kg/injection, schedule: Q01DX001 (ip), vehicle: saline with Tween-80).
Take `CC(=O)OC1CC2(C)C3(CO3)C1OC1C=C(C)C(=O)C(O)C12CO` (centres undefined): the T/C by setting is: (dose: 5.0 mg/kg/injection, schedule: Q04DX002 (ip), vehicle: saline + alcohol) 105 % of control; (dose: 10.0 mg/kg/injection, schedule: Q04DX002 (ip), vehicle: saline + alcohol) 100 % of control; (dose: 20.0 mg/kg/injection, schedule: Q04DX002 (ip), vehicle: saline + alcohol) 107 % of control; (dose: 40.0 mg/kg/injection, schedule: Q04DX002 (ip), vehicle: saline + alcohol) 109 % of control.
As for `COc1cc(C=Nc2ccc3c(c2)Cc2ccccc2-3)ccc1O`, the T/C was 104 % of control under setting [14] and 95 % of control under setting [15].
`O=S1(=O)C=CCCC=C1`: the T/C reads like this: under setting [7], 100 % of control; under setting [8], 89 % of control.
Regarding `CCCCCCCCCCCCCCSC(CC(=O)O)C(=O)NNC(N)=S` (centres undefined), the T/C is 101 % of control (dose: 87.5 mg/kg/injection, schedule: Q01DX009 (ip), vehicle: saline with Tween-80); 101 % of control (dose: 175.0 mg/kg/injection, schedule: Q01DX009 (ip), vehicle: saline with Tween-80); 113 % of control (dose: 350.0 mg/kg/injection, schedule: Q01DX009 (ip), vehicle: saline with Tween-80).
Turning to `COC(=O)CCC1([N+](=O)[O-])CCCCC1`, the T/C was 87 % of control (dose: 25.0 mg/kg/injection, schedule: Q01DX009 (ip), vehicle: saline with Tween-80); 92 % of control under setting [5]; 95 % of control under setting [10]; 92 % of control under setting [6]; 95 % of control under setting [1]; 88 % of control under setting [2].
As for `C=CCC(CC)(C(=O)OCC)C(=O)OCC`, the T/C is 100 % of control under setting [16]; 104 % of control under setting [17]; 122 % of control (dose: 400.0 mg/kg/injection, schedule: Q01DX009 (ip), vehicle: saline).

Values taken from PubChem BioAssay AID328 (DTP/NCI, 2004).
